The subject of test [1] is A549 NSCLC cells. Briefly: MTS cell proliferation assay, A549. The format is cell-based. Particulars: for growth inhibitory effect against A549 cells: concentrations up to 1 mM; for EC50: Homo sapiens, A549 (NSCLC), MTS, table of Example 3; for IC50: A549, MTS, read-out: IC50 (decreased cell proliferation by 50% compared to control). The procedure: Cell proliferation was determined using the CellTiter 96 Aqueous One Solution Cell Proliferation Assay MTS assay. A549 NSCLC cells were plated at 1.5×10^3 cells per well in flat bottom 96 well plates in 99 μL of media and allowed to adhere overnight. The drugs were serially diluted in 100% DMSO. For each drug treatment group, 1 μL of a 100× stock solution was added to each well for a final DMSO concentration of 1%. Cells were treated for 24, 48 or 72 hours. Cells were incubated with MTS dye (20 μL well^−1) for 40 min to 2 h. Absorbance at 490 nm was determined using a SpectraMax M2 (Molecular Devices) plate reader. The percent cell proliferation was calculated by converting the experimental absorbance to percentage of control, which was then plotted vs. drug concentration. The IC50 values were determined using a non-linear dose-response analysis in GraphPad Prism version 4.0. The IC50 is defined as the concentration of drug needed to cause a 50% decrease in proliferation compared to vehicle control. […]
(In general: Tetrazolium dyes change colour on reduction, which living cells bring about.)

Test [2] has as its system A549 NSCLC cells. The experiment in a line: Activity of other esters against NSCLC (FIG. 13A-D). The format is cell-based. Particulars: Homo sapiens. The procedure: Cells were dosed as described above. […] The results shown in FIG. 13 are from a single experiment only.
Results are shown in FIG. 13 and in the table below

The test system of another test is P. falciparum (NF54). Briefly: Antimalarial [3H]-hypoxanthine incorporation assay. Format: cell-based, Plasmodium falciparum. The method, then: Plasmodium falciparum culture. NF54 P. falciparum parasites were maintained in O+ positive erythrocytes (obtained weekly from a rotating pool of screened healthy donors) in complete medium containing RPMI (Sigma), 25 mM N-2-hydroxyethylpiperazine-N′-2-ethanesulfonic acid (HEPES; Sigma), 27 mM sodium bicarbonate (Sigma) and 10% heat-inactivated male O+ serum in non-vented flasks. Hematocrit was maintained at 2.4%. Flasks were gassed with a mixture of 3% oxygen, 4% carbon dioxide, 93% nitrogen. Parasitemia was maintained at 0.1-5% by changing medium and erythrocytes two to three times a week.
Antimalarial activity was measured using a [^3H]-hypoxanthine incorporation assay as described previously (Desjardins et al., Antimicrob. Agents Chemother., vol. 16, p. 710, 1979; Milhous et al., Antimicrob. Agents Chemother., vol. 27, np. 525, 1985). […] For surveys, each concentration was assayed in triplicate while in expansions, each concentration was assayed in quadruplicate. To each well, 0.64 μCi of [^3H]-hypoxanthine (10-30 Ci/mmol; Perkin Elmer) was added and the plate was incubated for an additional 20 to 24 h. Samples from each well were harvested on filter paper and tritium counts were measured on the Beckmann Coulter LS6500 scintillation counter. […] Values considered as outliers according to Chauvenet's criterion were discarded and dropped from analysis. One survey and at least one expansion was performed for each compound.

The subject of test [3] is MDA-MB-453 (breast) cancer cell line. The experiment in a line: MTS cell proliferation assay, MDA-MB-453. Particulars: Homo sapiens. The format is cell-based. The method, then:
(§1) Cell proliferation was determined using the CellTiter 96 Aqueous One Solution Cell Proliferation Assay MTS assay. A549 NSCLC cells were plated at 1.5×10^3 cells per well in flat bottom 96 well plates in 99 μL of media and allowed to adhere overnight. The drugs were serially diluted in 100% DMSO. For each drug treatment group, 1 μL of a 100× stock solution was added to each well for a final DMSO concentration of 1%. Cells were treated for 24, 48 or 72 hours. Cells were incubated with MTS dye (20 μL well^−1) for 40 min to 2 h. Absorbance at 490 nm was determined using a SpectraMax M2 (Molecular Devices) plate reader. The percent cell proliferation was calculated by converting the experimental absorbance to percentage of control, which was then plotted vs. drug concentration. The IC50 values were determined using a non-linear dose-response analysis in GraphPad Prism version 4.0. The IC50 is defined as the concentration of drug needed to cause a 50% decrease in proliferation compared to vehicle control.
(§2) The activity of Clodronate prodrug (14) was tested against other cell lines, include prostate (PIP3) and breast (MDA-MB-453) cancer cells lines. Cell proliferation was determined using the CellTiter 96 Aqueous One Solution Cell Proliferation Assay MTS assay as discussed above. Results are shown in FIG. 22 and in the table below.

The subject of test [4] is PIP3 (prostate) cancer cell line. Briefly: MTS cell proliferation assay, PIP3. The format is cell-based. The method, then:
as §1, §2

A further test relates to lung cancer cell lines. Particulars: cited from earlier work.
In test [5] the test system is breast and ovarian cancers. Particulars: cited from earlier work.
The test system of another test is L1210. Briefly: Cytotoxicity, L1210. The format is cell-based.
Test [6] has as its system A549 NSCLC cells. Briefly: Trypan blue cell count assay, A549. The note with it: for EC50: read-out: EC50 (decreased cell number by 50% compared to control). The procedure:
A549 NSCLC cells were plated at 1.7×10^4 cells per well in flat bottom 12-well plates. Cells were dosed as described above. At 24, 48 or 72 hours following drug treatment, the media was collected, and the cells were washed with 200 μL PBS. Each well was trypsinized with 200 μL trypsin for 3-5 min. The trypsin reaction was quenched with an equal volume of media. All supernatants and washes were combined and spun at 1,500 rpm for 5 min. Supernatant was decanted, and the cells were resuspended in 200 μL media. The cells were diluted 1:1 in 0.04% trypan blue and counted using a cytometer. The absolute number of cells was determined at each drug concentration. The cell number for each concentration was converted to percent of control for each time point, and plotted using GraphPad Prism 4.0. The EC50 was calculated as the concentration of drug that caused a 50% decrease in number of cells compared to control.
The number of viable cells at each dose was determined at 0, 24, 48 and 72 hours following drug treatment and plotted as a percent of control (FIG. 6A).

A further test has as its system H358. Briefly: Cyclized zoledronate intermediate vs zoledronic acid, normoxia/hypoxia, H358. The format is cell-based. Particulars: Homo sapiens.
Another test concerns A549. The experiment in a line: Cyclized zoledronate intermediate vs zoledronic acid, normoxia/hypoxia, A549. Format: cell-based. The note with it: Homo sapiens.
Test [7] deals with several cancer cell lines. The note with it: cited from earlier work.
Where [8] appears, read: Plasmodium falciparum, P. falciparum (NF54), read-out: IC50.
[9] abbreviates: A549, 24 h, single experiment, read-out: IC50 24 h.
[10] abbreviates: A549, 48 h, single experiment, read-out: IC50 48 h.
Setting [11] is: A549, 72 h, single experiment, read-out: IC50 72 h.

The source of these data is patent US8772268B2, “Bisphosphonamidate prodrugs and uses thereof” (The Johns Hopkins University, priority 2010, dated 2014).

Where “and” joins values, the source holds several entries; their conditions need not be identical. Identical values can stand only once. Like-named read-outs stand apart in the source and are kept apart here.

`O=P(O)(O)CP(=O)(O)O` [Bisphosphonate, reference compound]: the “growth inhibitory effect against A549 cells” value with A549 NSCLC cells [1] was “minimal activity”.

With `CN(CCCCCl)P(=O)(OCc1ccccc1)C(Cl)(Cl)P(=O)(OCc1ccccc1)N(C)CCCCCl` (stereo not drawn) [Chlorobenzyl analog], the IC50 is 18.9 µM in the test with A549 NSCLC cells [2] (A549, 24 h, read-out: IC50 24 h); 11.9 µM with A549 NSCLC cells [2] (A549, 48 h, read-out: IC50 48 h); 11.6 µM with A549 NSCLC cells [2] (A549, 72 h, read-out: IC50 72 h); 5.9 µM in the test with P. falciparum (NF54) (Plasmodium falciparum, NF54).

A word on the EC50: it is the concentration that produces a half-maximal response. Regarding `O=P(O)(O)C(Cl)(Cl)P(=O)(O)O` [Clodronate, clodronate, reference compound], the EC50 (in [3]; in test [4]; with A549 NSCLC cells [1]) was above 1000 µM each time. Further, the “growth inhibitory effect against A549 cells” value in the test on A549 NSCLC cells [1] is listed as “minimal activity”; in the test on A549 NSCLC cells [1] (listed as clodronate) it was “does not exhibit a detectable growth inhibitory effect”. The “activity against lung cancer cell lines” value in the test with lung cancer cell lines is given as “minimal activity”. The growth inhibition result in [5] is “high micromolar or low millimolar range”. The IC50 stood at 830 µM in the test on L1210 (Mus musculus) and 750 µM in the test on P. falciparum (NF54) (setting [8]).

As for `CN(CCCCCl)P(=O)(CP(=O)(OCc1ccccc1)N(C)CCCCCl)OCc1ccccc1` (stereo not drawn) [Deschlorobenzyl Analog], the figures for the IC50 in the test on A549 NSCLC cells [2] (setting [9]), with A549 NSCLC cells [2] (setting [10]) and in the test on A549 NSCLC cells [2] (setting [11]) were 21.6 µM, 12.8 µM and 7.8 µM, respectively.

For the molecule `CCN(CC)P(=O)(OCc1ccc([N+](=O)[O-])cc1)C(Cl)(Cl)P(=O)(OCc1ccc([N+](=O)[O-])cc1)N(CC)CC` (stereo not drawn) [Diethylamine Analog], the IC50 in the test on P. falciparum (NF54) (setting [8]) was 3.3 µM.

For `COP(=O)(N(C)CCCCCl)C(Cl)(Cl)P(=O)(OC)N(C)CCCCCl` (stereo not drawn) [Methoxy analog], the IC50 with A549 NSCLC cells [2] (setting [9]) was 93.4 µM; with A549 NSCLC cells [2] (setting [10]), 100 µM; in the test with A549 NSCLC cells [2] (setting [11]), 76.3 µM; with P. falciparum (NF54) (setting [8]), 22 µM.

For `CN(CCCCCl)P(=O)(OCCc1ccc([N+](=O)[O-])cc1)C(Cl)(Cl)P(=O)(OCCc1ccc([N+](=O)[O-])cc1)N(C)CCCCCl` (stereo not drawn) [Nitrophenethyl analog], the IC50 in the test with A549 NSCLC cells [2] (setting [9]) amounted to 4.8 µM; in the test with A549 NSCLC cells [2] (setting [10]), 3.1 µM; in the test on A549 NSCLC cells [2] (setting [11]), 2.1 µM; in the test with P. falciparum (NF54) (setting [8]), 0.97 ± 0.21 µM. Moreover, the EC50 with A549 NSCLC cells [6] (Homo sapiens, A549, 24 h) is around 10 µM; in the test on A549 NSCLC cells [6] (Homo sapiens, A549, 48 h), 3.5 µM; in the test with A549 NSCLC cells [6] (Homo sapiens, A549, 72 h) it was 4.2 µM.

`O=P(O)(O)C(O)(Cn1ccnc1)P(=O)(O)O` [Zoledronate, zoledronate]: the values for the EC50 (in test [3]; in test [4]; in the test with A549 NSCLC cells [1]) were 191 µM, 78 µM and 58 µM, respectively. Further, the IC50 in the test with H358 (NCI-H358, 48 h, H358, 48 hrs, Hypoxia) is 87 µM; in the test with H358 (NCI-H358, 48 h, H358, 48 hrs, Normoxia), 59 µM; in the test on H358 (NCI-H358, 72 h, H358, 72 hrs, Hypoxia), 135 µM; in the test with H358 (NCI-H358, 72 h, H358, 72 hrs, Normoxia), 15 µM; in the test on A549 (A549, 48 h, Hypoxia), 350 µM; in the test on A549 (A549, 48 h, Normoxia), 98 µM. Further, the IC50 in the test with A549 (A549, 72 h, Hypoxia) is 205 µM; in the test with A549 (A549, 72 h, Normoxia) it was 45 µM; in test [7], at least 3 µM.

On to `CN(CCCCCl)P(=O)(CP(=O)(OCc1ccc([N+](=O)[O-])cc1)N(C)CCCCCl)OCc1ccc([N+](=O)[O-])cc1` (stereo not drawn) [compound 13], for which the IC50 in the test with A549 NSCLC cells [1] (24 h) was 17 ± 4 µM; in the test on A549 NSCLC cells [1] (48 h), 15.2 µM and 15 µM; in the test with A549 NSCLC cells [1] (72 h), 13 ± 1 µM; with L1210 it was 27 µM; with P. falciparum (NF54) (P. falciparum (NF54), read-out: IC50), 5.2 ± 0.21 µM. For the same molecule, the “decrease in IC50 of 13 compared to 14” value in the test on A549 NSCLC cells [1] (A549 cells) is 3 fold. The “EC50 (trypan blue) fold higher than IC50 (MTS)” value in the test on A549 NSCLC cells [6] (A549, 48 h) was around 3.6 fold. Also, the EC50 with A549 NSCLC cells [6] (A549, trypan blue, 48 h) worked out at 24 ± 4 µM; with A549 NSCLC cells [6] (A549, trypan blue, 72 h), 25 ± 4 µM; in the test on A549 NSCLC cells [6] (A549, trypan blue, 72 h, listed as Bisphosphonate Prodrug), 24 ± 4 µM.
